{"source": "patent US7312221B2", "about": "“Inhibitors of macrophage migration inhibitory factor and methods for identifying the same” (Avanir Pharmaceuticals, priority 2003, dated 2007)", "key": {"MIF": {"molecular_target": "T1, MIF (Homo sapiens, UniProt P14174)", "T1 sequence (P14174 2-115 limits assumed)": "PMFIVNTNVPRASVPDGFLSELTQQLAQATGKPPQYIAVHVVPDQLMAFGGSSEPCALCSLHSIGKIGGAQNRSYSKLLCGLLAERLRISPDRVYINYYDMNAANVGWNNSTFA", "assay": "Tautomerase assay (in vitro tautomerase inhibitory activity)", "assay_type": "biochemical", "settings": "for MIF inhibitory activity, comparison of Compound 200 and Compound 203: in vitro activity, comparison of Table 2 (tautomerase; THP-1/MIF for 200 only); for in vitro tautomerase inhibitory activity: several different concentrations, FIG. 2 / FIG. 3", "text": "An alternative in vitro assay is designed to measure the ability of MIF to catalyze tautomerization of the D-isomer of dopachrome (see Rosengren et al., Mol. Med. 2:143-149, 1996; Winder et al., J. Cell Sci. 106:153-166, 1993; Aroca et al., Biochem. J. 277:393-397). Briefly, in this method, D-dopachrome is provided to MIF in the presence and absence of a candidate inhibitor and the ability to catalyze the tautomerization to 5,6-dihydroxyindole-2-carboxylic acid (DHICA) is monitored. However, use of methyl esters of D-dopachrome may be preferred in that a faster reaction rate is observed. Detection of the tautomerization can be performed by any one of a variety of standard methods.\nIn a similar assay, the ability of MIF to catalyze the tautomerization of phenylpyruvate may be tested (see Johnson et al., Biochem. 38(48):16024-16033, 1999). Briefly, in this method, typically ketonization of phenylpyruvate or (p-hydroxyphenyl)pyruvate is followed by spectroscopy. Further, product formation may be verified by treatment of these compounds with MIF and subsequent conversion to malate for ^1H NMR analysis.\nThe tautomerization reaction is carried out essentially as described by Rosengren et al., Mol. Med 2(1):143-149, 1996. D-dopachrome conversion to 5,6-dihydroxyindole-2-carboxylic acid is assessed. 1 ml sample cuvettes containing 0.42 mM substrate and 1.4 μg of MIF in a sample solution containing 0.1 mM EDTA and 10 mM sodium phosphate buffer, pH 6.0 are prepared and the rate of decrease in iminochrome absorbance is followed at 475 nm. L-dopachrome is employed as a control. In addition, the reaction products can be followed using an HPLC, utilizing a mobile phase including 20 mM KH2PO4 buffer (pH 4.0) and 15% methanol with a flow rate of 1.2 ml/min. Fluorimetric detection is followed at 295/345 nm.\nAlternatively, the tautomerization reaction utilizing phenylpyruvate or (p-hydroxyphenyl)pyruvate is carried out essentially as described by Johnson et al., Biochem. 38:16024-16033, 1999. In this version, ketonization of phenylpyruvate is monitored at 288 nm (ε=17300 M^−1 cm^−1) and the ketonization of (p-hydroxyphenyl)pyruvate is monitored at 300 nm (ε=21600 M^−1 cm^−1). The assay mixture contains 50 mM Na2HPO4 buffer (1 mL, pH 6.5) and an aliquot of a solution of MIF sufficiently dilute (0.5-1.0 μL of a 2.3 mg/mL solution, final concentration of 93-186 nM) to yield an initial liner rate. The assay is initiated by the addition of a small quantity (1-3.3 μL) of either phenylpyruvate or (p-hydroxyphenyl)pyruvate from stock solutions made up in ethanol. The crystalline forms of phenylpyruvate and (p-hydroxyphenyl)pyruvate exist exclusively as the enol isomers (Larsen et al., Acta Chem. Scand. B 28:92-96, 1974)."}, "[1]": {"molecular_target": "T2, MIF produced by THP-1 cells (Homo sapiens, UniProt P14174)", "T2 construct": "a test cell may express the MIF naturally (e.g., THP-1 cells); endogenous in cells; host or cells: THP-1 cells, LPS-stimulated; conditioned supernatant", "T2 sequence (P14174 2-115 limits assumed)": "T1 sequence (P14174 2-115 limits assumed)", "assay": "THP-1 Cell Assay (THP-1/MIF inhibition, ELISA with anti-MIF monoclonal antibody)", "assay_type": "cell-based", "text": "The assays may generally be divided into three categories, those being, assays which monitor export; those which monitor effector or small molecule binding, and those that monitor MIF activity. However, it should be noted that combinations of these assays are within the scope of the present application. […] In an alternative, these two assays (i.e., binding and activity assays) may be combined into a singular assay which detects binding of a test compound (e.g., the ability to displace monoclonal antibodies or inhibit their binding) while also affecting MIF activity. Such assays include combining an ELISA type assay (or similar binding assay) with a MIF tautomerism assay or similar functional assay. As one of ordinary skill in the art may readily recognize, the exact assay employed is irrelevant, provided it is able to detect the ability of the compound of interest to bind MIF.\nVarying concentrations of inhibitor analogs are added to LPS stimulated THP-1 cells and allowed to incubate overnight. The following day the amount of immunoreactive MIF detected is evaluated by ELISA.\nThe high throughput screening assay for MIF inhibitors is performed in a 96-well format using MIF produced by THP-1 cells and is performed as follows. MIF assays are performed by ELISA as indicated above. […] The amount of MIF is calculated by interpolation from an MIF standard curve."}, "[2]": {"settings": "average of the determinations, read-out: Average IC 50 (Tautomerase Assay)"}, "[3]": {"settings": "single determinations, range in brackets, read-out: Tautomerase Assay (Inhibitory Concentration (IC) of 50 μm)"}}, "note": "pIC50: −log10 of the molar value. “And” between values parts separate entries of the source, which are not always exact repeats. Identical values can stand only once. Like-named read-outs stand apart in the source and are kept apart here."}
{"smiles": "N#Cc1c(N2CCN(C(=O)c3ccc(C(F)(F)F)cc3)CC2)c2ccccc2n(Cc2ccc(F)cc2)c1=O", "note": "[Compound 100, 1-(4-Fluoro-benzyl)-2-oxo-4-[4-(4-trifluoromethyl-benzoyl)-piperazin-1-yl]-1,2-dihydro-quinoline-3-carbonitrile]", "values": [{"measurement": "melting point", "value": "181 to 185", "unit": "°C"}]}
{"smiles": "N#Cc1c(N2CCN(C(=O)c3cccs3)CC2)c2ccccc2n(Cc2ccc(F)cc2)c1=O", "note": "[Compound 203]", "values": [{"measurement": "pIC50", "setting": "MIF; [2]", "value": 7.01}, {"measurement": "MIF inhibitory activity, comparison of Compound 200 and Compound 203", "setting": "MIF", "value": "satisfactory MIF inhibitory activity"}, {"measurement": "in vitro tautomerase inhibitory activity", "setting": "MIF", "value": "exhibits MIF inhibitory activity"}, {"measurement": "pIC50", "setting": "MIF; [3]", "value": 7.01}]}
{"smiles": "N#Cc1c(N2CCN(C(=O)c3c[nH]cn3)CC2)c2ccccc2n(Cc2ccc(F)cc2)c1=O", "note": "[Compound 101, 1-(4-Fluoro-benzyl)-4-[4-(1H-imidazole-4-carbonyl)-piperazin-1-yl]-2-oxo-1,2-dihydro-quinoline-3-carbonitrile]", "values": [{"measurement": "melting point", "value": "176 to 183", "unit": "°C"}]}
{"smiles": "N#Cc1c(N2CCN(C(=O)c3ccc4ccccc4n3)CC2)c2ccccc2n(Cc2ccc(F)cc2)c1=O", "note": "[Compound 96, 1-(4-Fluoro-benzyl)-2-oxo-4-[4-(quinoline-2-carbonyl)-piperazin-1-yl]-1,2-dihydro-quinoline-3-carbonitrile]", "values": [{"measurement": "melting point", "value": "144 to 157", "unit": "°C"}]}
{"smiles": "N#Cc1c(N2CCN(C(=O)C3CCCS3)CC2)c2ccccc2n(Cc2ccc(F)cc2)c1=O", "note": "(stereo not drawn) [Compound 102, 1-(4-Fluoro-benzyl)-2-oxo-4-[4-(tetrahydro-thiophene-2-carbonyl)-piperazin-1-yl]-1,2-dihydro-quinoline-3-carbonitrile]", "values": [{"measurement": "melting point", "value": "133 to 140", "unit": "°C"}]}
{"smiles": "N#Cc1c(N2CCN(C(=O)C3CCCO3)CC2)c2ccccc2n(Cc2ccc(F)cc2)c1=O", "note": "(stereo not drawn) [Compound 98, 1-(4-Fluoro-benzyl)-2-oxo-4-[4-(tetrahydro-furan-2-carbonyl)-piperazin-1-yl]-1,2-dihydro-quinoline-3-carbonitrile]", "values": [{"measurement": "melting point", "value": "123 to 135", "unit": "°C"}]}
{"smiles": "Cc1cc(C(=O)N2CCN(c3c(C#N)c(=O)n(Cc4ccc(F)cc4)c4ccccc34)CC2)no1", "note": "[Compound 97, 1-(4-Fluoro-benzyl)-4-[4-(5-methyl-isoxazole-3-carbonyl)-piperazin-1-yl]-2-oxo-1,2-dihydro-quinoline-3-carbonitrile]", "values": [{"measurement": "melting point", "value": "130 to 137", "unit": "°C"}]}
{"smiles": "N#Cc1c(N2CCN(C(=O)c3cnccn3)CC2)c2ccccc2n(Cc2ccc(F)cc2)c1=O", "note": "[Compound 95, 1-(4-Fluoro-benzyl)-2-oxo-4-[4-(pyrazine-2-carbonyl)-piperazin-1-yl]-1,2-dihydro-quinoline-3-carbonitrile]", "values": [{"measurement": "melting point", "value": "145 to 156", "unit": "°C"}]}
{"smiles": "Cn1c(=O)c(C#N)c(N2CCN(C(=O)c3cccs3)CC2)c2ccccc21", "note": "[Compound 200]", "values": [{"measurement": "pIC50", "setting": "MIF; [2]", "value": 6.49}, {"measurement": "MIF inhibitory activity, comparison of Compound 200 and Compound 203", "setting": "MIF", "value": "satisfactory MIF inhibitory activity"}, {"measurement": "in vitro tautomerase inhibitory activity", "setting": "MIF", "value": "exhibits MIF inhibitory activity"}, {"measurement": "pIC50", "setting": "MIF; [3]", "value": "6.52 and 6.47"}, {"measurement": "pIC50", "setting": "[1]; average of the determinations, read-out: Average IC 50 (THP-1/MIF Inhibition)", "value": 6.82}, {"measurement": "MIF inhibitory activity in the THP-1 Cell Assay", "setting": "[1]; several different concentrations, FIG. 1", "value": "exhibits MIF inhibitory activity"}]}
{"smiles": "N#Cc1c(N2CCN(C(=O)c3ccc4c(c3)OCO4)CC2)c2ccccc2n(Cc2ccc(F)cc2)c1=O", "note": "[Compound 99, 4-[4-(Benzo[1,3]dioxole-5-carbonyl)-piperazin-1-yl]-1-(4-fluoro-benzyl)-2-oxo-1,2-dihydro-quinoline-3-carbonitrile]", "values": [{"measurement": "melting point", "value": "140 to 160", "unit": "°C"}]}
